From patent US11364211B2, “Methods for selecting phosphatase selective and non-selective phosphatase inhibitors” (MEDICAL RESEARCH COUNCIL, priority 2015, dated 2022)
pKd: −log10 of the molar value.

Tests used:
PPP1R15A-PP1 complex = target: T1, PPP1R15A-PP1 complex (Homo sapiens, UniProt O75807); assay: SPR steady-state binding to R15A-PP1c holophosphatase on streptavidin chip; settings: steady-state affinity
T1 construct: the cDNAs encoding amino acids 325-636 of PPP1R15A; made in house; host or cells: R15A fragment: E. coli BL21-Gold; BAP-PP1γ: Sf9 insect cells (baculovirus)
Description: (§1) The streptavidin coated surface was activated by 1 min injection with a solution of 50 mM NaOH and 1 M NaCl. Biotin-PP1 was diluted in the running buffer (50 mM Tris pH 7.5, 100 mM NaCl, 0.1 mM EGTA, 1 mM MnCl2, 0.05% Tween 20) and injected at approximately 300 nM concentration directly to streptavidin coated surface for 100 sec or to reach immobilization level of biotin-PP1 corresponding to ˜7000 RU. A blank immobilization was performed for one of the SA sensor chip surface to use as a reference.
(§2) With minor deviations, the same procedure and conditions were used in all binding experiments. Small molecules were stored as 50 mM stock solutions in 100% DMSO. Prior to determining binding constants, serial dilutions of either 12 or 8 concentrations of the compounds were prepared in the running buffer in a 96-well plate. […] Then, without regenerating the surface, the compound dilution series was injected onto the surface of the chip Sensorgrams were analyzed using the Biacore T200 evaluation software and the binding constants determined based on a steady-state model. Kinetic experiments are carried out using different concentrations of the compound and their respective equilibrium binding levels determined.
(§3) Surface Plasmon Resonance (SPR) was used to measure the binding affinity of compounds to the PPP1R15A/B-PP1 phosphatase complex. Biotin acceptor peptide (BAP) was fused to the N-terminus of PP1γ, which enables the biotinylation of the BAP-tagged protein in Sf9 insect cells. After purification the BAP-PP1γ protein was captured on a streptavidin sensor chip (SA-chip, GE healthcare) to a response level of ˜5.000 RU. Using controlled biotinylation enables orientated and uniform immobilization on the sensor chip surface. The PP1γ was then used to capture PPP1R15A/B and form a holophosphatase complex on the surface of the streptavidin chip. This complex can then be used to test binding of compounds. 10 μM PPP1R15A/B protein concentration was used to form the holophosphatase complex during a 80 s injection. […] After the concentration series (8 or 12 concentrations) is completed the surface is regenerated with 3 M NaCl and we can capture R15A/B again to form a fresh holophosphatase complex to measure a binding of another compound concentration series. Analysing the level of equilibrium binding as a function of concentration gives interaction affinities or steady-state binding affinity (KD).
(§4) The streptavidin coated surface was activated by 1 minute injection with a solution of 50 mM NaOH and 1 M NaCl three times at a flow rate of 10 μl/min. bio-GBZ or bio-PP1c was diluted in the running buffer (50 mM Tris pH 7.5, 100 mM NaCl, 0.1 mM EGTA, 0.05% Tween 20, 0.1% DMSO) and injected at approximately 300 nM concentration at a flow rate of 10 μl/min directly to streptavidin coated surface to reach immobilization level of bio-GBZ or bio-PP1c corresponding to ˜200 and 6000 RU, respectively. A blank immobilization was performed for one of the SA sensor chip surface to use as a reference.
(§5) With minor deviations, the same procedure and conditions were used in all binding experiments. Small molecules were stored as 50 mM stock solutions in 100% DMSO. Prior to determining binding constants, serial dilutions of either 12 or 8 concentrations of the compounds were prepared in the running buffer in a 96-well plate. […] This was followed by 1 minute stabilization period, to wash off any unspecific binding. […]

PP1c [1] = target: T2, PP1c (Homo sapiens, UniProt P36873); assay: SPR binding to PP1c alone immobilized on chip; settings: PP1c alone, read-out: affinity (KD) for PP1
Description: as §4
as §5, with “binding. Then, without regenerating the surface, the compound dilution series was injected onto the surface of the chip at a flow rate of 30 μl/min for 1 minute, followed by 2 minutes dissociation time.” for “binding.”
Kinetic experiments are carried out using different concentrations of the compound and their respective equilibrium binding levels determined.

PPP1R15B-PP1 complex = target: T3, PPP1R15B-PP1 complex (Homo sapiens, UniProt Q5SWA1); assay: SPR steady-state binding to R15B-PP1c holophosphatase on streptavidin chip; settings: for pKd: SPR, steady-state affinity
T3 construct: 340-698 of PPP1R15B were His-tagged and cloned into pMAL-c5x; made in house; host or cells: R15B fragment: E. coli BL21-Gold; BAP-PP1γ: Sf9 insect cells (baculovirus)
Description: as §1, §2, §3, §4
With minor deviations, the same procedure and conditions were used in all binding experiments. Small molecules were stored as 50 mM stock solutions in 100% DMSO. Prior to determining binding constants, serial dilutions of either 12 or 8 concentrations of the compounds were prepared in the running buffer in a 96-well plate. […] This was followed by 1 minute stabilization period, to wash off any unspecific binding. Then, without regenerating the surface, the compound dilution series was injected onto the surface of the chip at a flow rate of 30 μl/min for 1 minute, followed by 2 minutes dissociation time. After each dilution series the surface was regenerated using 3 M NaCl for 90 seconds. […] In order to be able to correct for small variations in DMSO concentration between samples, eight solvent samples ranging from 0.06 to 8% DMSO were injected every 50th cycle. The flow cell temperature was 10° C.

PP1c [2] = target: T2, PP1c; assay: PP1c catalytic activity assay (EnzChek); format: biochemical; settings: purified PP1c 30 nM, 30 minutes at 4° C.
Description: Residual activity of PP1c was then measured using the EnzChek Phosphatase Assay Kit (Thermo Fisher Scientific) according to the supplier's instructions.

T1 sequence (O75807 325-636): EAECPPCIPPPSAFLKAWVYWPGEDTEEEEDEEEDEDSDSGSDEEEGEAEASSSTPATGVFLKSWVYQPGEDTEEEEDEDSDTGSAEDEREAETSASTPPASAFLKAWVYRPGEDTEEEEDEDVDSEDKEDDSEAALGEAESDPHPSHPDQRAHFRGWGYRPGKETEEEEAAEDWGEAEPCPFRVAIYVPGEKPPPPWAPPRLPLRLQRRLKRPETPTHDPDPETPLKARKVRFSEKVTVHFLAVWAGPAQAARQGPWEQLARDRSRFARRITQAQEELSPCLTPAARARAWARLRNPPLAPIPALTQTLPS
T1 sequence (P36873 whole entry partner, the tested form may be a part): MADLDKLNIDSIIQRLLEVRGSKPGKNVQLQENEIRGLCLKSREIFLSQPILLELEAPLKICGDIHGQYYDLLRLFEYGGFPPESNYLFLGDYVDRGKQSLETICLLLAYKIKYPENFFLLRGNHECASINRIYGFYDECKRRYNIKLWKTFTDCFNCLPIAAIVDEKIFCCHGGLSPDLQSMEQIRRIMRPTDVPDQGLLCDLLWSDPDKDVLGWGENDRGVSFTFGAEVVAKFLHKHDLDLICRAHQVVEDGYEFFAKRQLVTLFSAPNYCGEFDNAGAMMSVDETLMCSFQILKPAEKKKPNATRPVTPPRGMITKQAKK
T3 sequence (Q5SWA1 340-698): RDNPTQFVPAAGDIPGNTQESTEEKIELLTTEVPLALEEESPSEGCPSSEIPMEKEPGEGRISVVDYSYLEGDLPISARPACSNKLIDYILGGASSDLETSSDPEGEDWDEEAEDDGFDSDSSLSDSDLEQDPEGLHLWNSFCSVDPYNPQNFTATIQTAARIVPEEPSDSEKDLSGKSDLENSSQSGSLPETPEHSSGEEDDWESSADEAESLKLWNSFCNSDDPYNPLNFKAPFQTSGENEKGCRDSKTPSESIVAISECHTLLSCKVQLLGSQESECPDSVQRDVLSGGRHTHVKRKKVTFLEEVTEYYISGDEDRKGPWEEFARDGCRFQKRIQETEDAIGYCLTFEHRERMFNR
T3 sequence (P36873 whole entry partner, the tested form may be a part): as the sequence (P36873 whole entry partner, the tested form may be a part) above
T2 sequence (P36873 whole entry): as the sequence (P36873 whole entry partner, the tested form may be a part) above

Compound	pKd (PPP1R15A-PP1 complex)	pKd (PP1c [1])	pKd (PPP1R15B-PP1 complex)	inhibition of PP1c in enzymatic assay (PP1c [2])	difference in affinities between PPP1R15A-PP1 and PPP1R15B-PP1 (PPP1R15B-PP1 complex; from SPR KD values)
N=C(N)N/N=C/c1cc(Cl)c(Cl)c(Cl)c1 [Example 3, (E)-2-(3,4,5-trichlorobenzylidene)hydrazine-1-carboximidamide]	5.41	–	–	–	–
O=C(/C=C/c1ccccc1)NC(NC(=S)Nc1cccc2cccnc12)C(Cl)(Cl)Cl (centres unmarked) [Salubrinal]	< 4.70	< 4.70	< 4.70	–	–
COC[C@@H]([C@H](O)[C@H](O)C(=O)NCC[C@H](C)c1nc(/C=C/C[C@@H]2O[C@]3(C[C@@H](O)[C@@H]2C)O[C@H]([C@H](C[C@H](O)[C@H](C)[C@H](O)[C@H](C)/C=C(C)/C(C)=C/C=C/C(C)=C\C#N)OC)[C@H](OP(=O)(O)O)C3(C)C)co1)N(C)C [calyculin A, reference compound]	–	–	–	a catalytic inhibitor of PP1	–
N=C(N)N/N=C/c1ccc(F)cc1Cl [Example 2, (E)-2-(2-chloro-4-fluorobenzylidene)hydrazine-1-carboximidamide]	5.30	–	6.84	–	greater than 30 fold
